Measurements: article PMC4312240 (Bioorganic & medicinal chemistry, 2014)

How the values were obtained:
HBV [1] = assay: Anti-HBV activity in HepG2 cells; format: cell-based; settings: for Anti-HBV potency compared with DAPD prodrug 5: comparison in words
HIV = settings: in words; cited from earlier work
HBV [2] = settings: in words; cited from earlier work

## (2S)-Ethyl 2-(((((2R,4R)-4-(2-amino-6-palmitamido-9H-purin-9-yl)-1,3-dioxolan-2-yl)methoxy)(phenoxy)phosphoryl)amino)propanoate [Compound 10h]
HBV [1]
  Anti-HBV potency compared with DAPD prodrug 5: in the same range as DAPD prodrug 5

## (2S)-Ethyl 2-(((((2R,4R)-4-(2-amino-6-tetradecanamido-9H-purin-9-yl)-1,3-dioxolan-2-yl)methoxy)(phenoxy)phosphoryl)amino)propanoate [Compound 10g]
HBV [1]
  Anti-HBV potency compared with DAPD prodrug 5: in the same range as DAPD prodrug 5

## (2S)-ethyl 2-(((((2R,4R)-4-(2-amino-6-hydroxy-9H-purin-9-yl)-1,3-dioxolan-2-yl)methoxy)(phenoxy)phosphoryl)amino)propanoate [Compound 5]
HBV [1]; ratio of EC50 values, DAPD vs prodrug
  Factor of increase in potency against HBV compared with DAPD: 40

## (−)-β-D-(2R,4R)-1,3-dioxolane-2-amino-6-aminopropyl purine nucleoside phosphoramidate prodrug [Compound 4]
HIV
  Activity against HIV: submicromolar
HBV [2]
  Activity against HBV: submicromolar
